The values that follow come from patent US9101613B2, “Methods for treating neurological disease” (Neurim Pharmaceuticals (1991) Ltd., priority 2006, dated 2015).

Where two headings read alike, the source gives them in different places.

In one assay the target is T1, MT-1 receptor (Homo sapiens, UniProt P48039).
T1 construct: expressed in transfected cells; host or cells: CHP-K1 (Chinese hamster ovary) cells (so in the source)
The assay is described as follows: 125I-melatonin binding in membranes of CHP-K1 cells, MT-1. To be noted: for inhibition at 10 µM: read-out: MT-1 receptor binding % inhibition by 10 μM. Here is the method: (§1) Aliquots of suspended membranes of human recombinant CHP-K1 (Chinese hamster ovary) cells stably expressing human melatonin-1 or melatonin-2 (MT-1 or MT-2) receptors or of hamster brain (MT-3) were incubated at 25° C. with 0.05 nM ^125I-melatonin in buffer (25 mM HEPES, pH 7.4, 5 mM MgCl2, 1 mM CaCl2, 0.5% BSA) or with 0.1 nM for MT-3 alone or in the presence of 1 nM, 10 nM, 0.1 μM, 1 μM and 10 μM of test substances N-[2-(5-methoxy-indol-3-yl)-ethyl]-commenamide, N-[2-(5-methoxy-indol-3-yl)-ethyl]-comanilamide, N-[2-(5-methoxy-indol-3-yl)-ethyl]-coumalylamide, N-[2-(5-methoxy-indol-3-yl)-ethyl]-2-methoxy-commenamide, N-[2-(5-methoxy-indol-3-yl)-ethyl]-chelidonamide, O-[2-(5-methoxy-indol-3-yl)-ethyl]-comenic ester, N-[2-(5-methoxy-indol-3-yl)-ethyl]-2-Pyrone-6-carboxamide and N-[2-(2-bromo-5-methoxy-indol-3-yl)-ethyl]-coumalylamide for 3 hours for MT-1, 4 hours for MT-2 and 30 min for MT-3. The binding reaction was terminated and the membranes were washed with 4 ml of ice-cold HEPES buffer by vacuum filtration. Membranes were then collected, and the filters containing the bound ^125I-melatonin were assayed for the amount of radioactivity in a […]. Non-specific binding was evaluated using a reaction with 1 μM 6-chloromelatonin (MT-1 and MT-2) or 30 μM melatonin (MT-3).

A further assay addresses T2, MT-2 receptor (Homo sapiens, UniProt P49286).
T2 construct: expressed in transfected cells; host or cells: CHP-K1 (Chinese hamster ovary) cells (so in the source)
T2 sequence (P49286 1-362): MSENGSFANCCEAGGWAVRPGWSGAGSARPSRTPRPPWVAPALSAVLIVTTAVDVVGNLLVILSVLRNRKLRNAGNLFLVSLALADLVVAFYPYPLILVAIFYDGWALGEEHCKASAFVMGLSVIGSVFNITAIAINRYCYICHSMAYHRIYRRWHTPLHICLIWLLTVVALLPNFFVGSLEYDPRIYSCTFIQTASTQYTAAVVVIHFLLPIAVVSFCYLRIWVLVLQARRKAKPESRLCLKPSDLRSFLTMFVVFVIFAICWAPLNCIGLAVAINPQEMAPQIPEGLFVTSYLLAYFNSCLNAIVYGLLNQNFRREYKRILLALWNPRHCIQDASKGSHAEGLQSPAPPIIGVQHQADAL
The assay is described as follows: 125I-melatonin binding in membranes of CHP-K1 cells, MT-2. The settings on record: for inhibition at 10 µM: read-out: MT-2 receptor binding % inhibition by 10 μM. Here is the method: as §1

In a further assay the target is T3, 5-HT1A receptor (Homo sapiens, UniProt P08908).
T3 construct: expressed in transfected cells; host or cells: CHO-K1
T3 sequence (P08908 1-422): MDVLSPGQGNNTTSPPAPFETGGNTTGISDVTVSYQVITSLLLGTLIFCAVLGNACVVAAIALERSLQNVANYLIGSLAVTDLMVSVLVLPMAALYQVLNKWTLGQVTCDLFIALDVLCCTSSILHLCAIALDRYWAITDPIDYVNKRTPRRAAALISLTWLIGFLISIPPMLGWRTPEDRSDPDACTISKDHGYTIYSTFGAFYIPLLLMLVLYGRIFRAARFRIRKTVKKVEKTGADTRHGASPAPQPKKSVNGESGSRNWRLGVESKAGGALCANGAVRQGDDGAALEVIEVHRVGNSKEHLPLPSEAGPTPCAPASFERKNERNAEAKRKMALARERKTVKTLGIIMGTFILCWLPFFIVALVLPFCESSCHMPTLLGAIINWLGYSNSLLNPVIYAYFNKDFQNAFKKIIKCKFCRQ
Kind of assay: Serotonin receptor binding, [3H] 8-OH-DPAT, CHO-K1 membranes. On the procedure: Aliquots of suspended membranes of human recombinant CHO-K1 cells stably expressing human 5-HT1A, 5-HT2A, 5-HT1B, 5-HT2B, 5-HT2C, 5-HT4, 5-HT6 or 5-HT7 receptors were pre-incubated at 25° C. with 1.5 nM [^3H] 8-OH-DPAT (5-HT1A), 1.5 nM [^3H] Ketanserin (5-HT2A), 0.01 nM [^125I] Cyanopindolol (5-HT1B), 1 nM [^3H] Mesulergine (5-HT2c), 0.7 nM [^3H] GR-113808 (5-HT4) or at 37° C. 1.2 nM [^3H] LSD (5-HT2B, 5-HT6 and 5-HT7) in buffer (50 mM Tris-HCl, pH 7.7) alone or in the presence of 1 nM, 10 nM, 0.1 μM, 1 μM, and 10 μM of N-[2-(5-methoxy-indol-3-yl)-ethyl]-commenamide, N-[2-(5-methoxy-indol-3-yl)-ethyl]-coumalylamide, N-[2-(5-methoxy-indol-3-yl)-ethyl]-comanilamide, N-[2-(5-methoxy-indol-3-yl)-ethyl]-2-methoxy-commenamide or N-[2-(5-methoxy-indol-3-yl)-ethyl]-chelidonamide for 60 minutes. The binding reaction was terminated and washed with 4 ml ice-cold 50 mM Tris-HCl buffer by vacuum filtration. Membranes were then collected, and the filters containing the bound ligands were assayed for the amount of radioactivity in a b-counter. Non-specific binding was evaluated using a reaction with 10 μM metergoline (5-HT1A), 1 μM mianserin (5-HT2A and 5-HT2c) or 10 μM serotonin (5-HT1B, 5-HT2B, 5-HT4, 5-HT6 and 5-HT7).

Another assay relates to CD1 mice. The assay is described as follows: Motimeter assay (motor activity and rearing). The format is in vivo. The settings on record: 100 mg/kg i.p.; for effect on motor activity and rearing: 30-35 min and 60-65 min after treatment. Here is the method: Mice were starved for 16 hrs before treatment. Male CD1 mice, weighing 25-30 g, were treated intraperitoneally with melatonin, N-[2-(5-methoxy-indol-3-yl)-ethyl]-comanilamide or N-[2-(5-methoxy-indol-3-yl)-ethyl]-commenamide in a dose of 100 mg/kg. The horizontal (i.e. locomotion) and vertical (i.e. rearing) movements were measured for 5 minutes two times, 30 and 60 min after treatment. Eight mice/group were used. The 4-channel activity meter is a square-shaped frame containing transparent infra-red permeable acrylic cages. The frames feature two pairs of light-beam strips for measuring horizontal movements, and two pairs for measuring rearing. Each strip is equipped with 16 infra-red sensors.

Setting [1] is: 0.05 nM 125I-melatonin, 25° C., 3 hours, read-out: MT-1 receptor binding IC50.
[2] abbreviates: 0.05 nM 125I-melatonin, 25° C., 3 hours, read-out: MT-1 receptor binding KI.
The mark [3] stands for this setting: 0.05 nM 125I-melatonin, 25° C., 4 hours, read-out: MT-2 receptor binding IC50.
Setting [4] is: 0.05 nM 125I-melatonin, 25° C., 4 hours, read-out: MT-2 receptor binding KI.

T1 sequence (P48039 whole entry): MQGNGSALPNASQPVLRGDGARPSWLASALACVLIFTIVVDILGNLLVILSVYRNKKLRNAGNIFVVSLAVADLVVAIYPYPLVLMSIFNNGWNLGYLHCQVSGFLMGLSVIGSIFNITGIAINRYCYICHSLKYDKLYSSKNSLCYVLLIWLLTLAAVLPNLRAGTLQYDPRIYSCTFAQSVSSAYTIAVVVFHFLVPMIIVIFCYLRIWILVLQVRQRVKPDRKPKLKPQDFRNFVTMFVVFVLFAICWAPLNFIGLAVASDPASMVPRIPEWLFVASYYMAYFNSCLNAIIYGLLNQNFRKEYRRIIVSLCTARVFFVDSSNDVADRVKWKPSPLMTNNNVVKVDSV

With `COc1ccc2[nH]cc(CCNC(=O)c3cc(=O)cc(C(=O)O)o3)c2c1` [N-[2-5-methoxy-indol-3-yl)-ethyl]-chelidonamide], the half-maximal inhibitory concentration (IC50) (in general, the concentration that inhibits the measured activity by half) is 2470 nM at MT-1 receptor (setting [1]), 1760 nM on MT-2 receptor (setting [3]) and 1030 nM at 5-HT1A receptor (read-out: 5-HT1A IC50). For the same compound, the Ki (usually a dissociation constant, usually derived from enzyme kinetics or from competition with a known ligand) at MT-1 receptor (setting [2]) worked out at 1280 nM; at MT-2 receptor (setting [4]) it was 910 nM; on 5-HT1A receptor (read-out: 5-HT1A KI), 580 nM. Moreover, the inhibition – broadly, the relative decrease from the control value, in per cent – at 10 µM on MT-1 receptor (10 μM, 0.05 nM 125I-melatonin) was 80%; on MT-2 receptor (10 μM, 0.05 nM 125I-melatonin) it was 89%. Further, at 5-HT1A receptor, the “affinity to 5-HT1A” value is recorded as “moderate affinity”.

For the compound `COc1ccc2[nH]cc(CCNC(=O)c3cc(=O)c(OC)co3)c2c1` [N-[2-(5-methoxy-indol-3-yl)-ethyl]-2-methoxy-commenamide], the results for the IC50 on MT-1 receptor (setting [1]), at MT-2 receptor (setting [3]) and on 5-HT1A receptor (read-out: 5-HT1A IC50) were 2130 nM, 826 nM and 1930 nM, respectively. Moreover, the Ki on MT-1 receptor (setting [2]) turned out to be 1110 nM; at MT-2 receptor (setting [4]), 429 nM; at 5-HT1A receptor (read-out: 5-HT1A KI) it was 1100 nM. Moreover, the inhibition at 10 µM at MT-1 receptor (10 μM, 0.05 nM 125I-melatonin) was 76%; on MT-2 receptor (10 μM, 0.05 nM 125I-melatonin) it was 93%.

As for `COc1ccc2[nH]cc(CCNC(=O)c3cc(=O)cco3)c2c1` [N-[2-(5-methoxy-indol-3-yl)-ethyl]-comanilamide], at MT-1 receptor, the “affinity to MT-1” value is on record as “high affinity”. Also, the half-maximal inhibitory concentration (IC50) at MT-1 receptor (setting [1]) was 42 nM; on MT-2 receptor (setting [3]), 65 nM; on 5-HT1A receptor (read-out: 5-HT1A IC50), 1950 nM. The Ki at MT-1 receptor (setting [2]) was found to be 22 nM; on MT-2 receptor (setting [4]), 34 nM; on 5-HT1A receptor (read-out: 5-HT1A KI) it was 1110 nM. The inhibition at 10 µM stood at 98% at MT-1 receptor (10 μM, 0.05 nM 125I-melatonin) and 100% at MT-2 receptor (10 μM, 0.05 nM 125I-melatonin). The “affinity to MT-2” value on MT-2 receptor is on record as “high affinity”. Also, the “effect on motor activity and rearing” value in the assay with CD1 mice was “did not change significantly the motor activity and rearing”.

For the compound `COc1ccc2[nH]cc(CCNC(=O)c3cc(=O)c(O)co3)c2c1` [N-[2-(5-methoxy-indol-3-yl)-ethyl]-commenamide], at MT-1 receptor, the IC50 turned out to be 24 nM; the affinity, expressed as Ki, was 13 nM; the “affinity to MT-1” value was “high affinity”; the inhibition at 10 µM amounted to 99%. Further, on MT-2 receptor, the 50% inhibitory concentration (IC50) turned out to be 13 nM, the inhibitory constant (Ki) worked out at 7 nM, the “affinity to MT-2” value was “high affinity” and the inhibition at 10 µM was 101%. At 5-HT1A receptor, the concentration for half-maximal inhibition (IC50) stood at 680 nM, affinity was put at a Ki of 390 nM and the “affinity to 5-HT1A” value is “moderate affinity”. Also, the “effect on motor activity and rearing” value in the assay with CD1 mice is “did not change significantly the motor activity and rearing”.

With `COc1ccc2[nH]cc(CCNC(=O)c3ccc(=O)oc3)c2c1` [N-[2-(5-methoxy-indol-3-yl)-ethyl]-coumalylamide], the half-maximal inhibitory concentration (IC50) at MT-1 receptor (setting [1]) was found to be 750 nM; on MT-2 receptor (setting [3]) it was 370 nM; on 5-HT1A receptor (read-out: 5-HT1A IC50), 1970 nM. Further, the Ki on MT-1 receptor (setting [2]) was 390 nM; on MT-2 receptor (setting [4]), 190 nM; on 5-HT1A receptor (read-out: 5-HT1A KI), 650 nM. The inhibition at 10 µM was 89% on MT-1 receptor (10 μM, 0.05 nM 125I-melatonin) and 95% on MT-2 receptor (10 μM, 0.05 nM 125I-melatonin). Also, the “effect on motor activity and rearing” value with CD1 mice was “significantly decreased both the motor activity and rearing”. Besides, the “motor activity (horizontal movement) changes (%) 30 min” value in the assay with CD1 mice (30 min, vs vehicle) was −63.1%. Further, the “motor activity (horizontal movement) 30 min Means ± SE” value in the assay with CD1 mice (30 min after treatment, 5 min measurement) turned out to be 158.8 ± 37.0. The “motor activity (horizontal movement) changes (%) 60 min” value with CD1 mice (60 min, vs vehicle) is given as −80.3%. In addition, the “motor activity (horizontal movement) 60 min Means ± SE” value with CD1 mice (60 min after treatment, 5 min measurement) stood at 62.3 ± 16.6.
